According to ChEMBL document CHEMBL2440076, “New triarylpyrazoles as broad-spectrum anticancer agents: design, synthesis, and biological evaluation” (Eur J Med Chem, 2013):

Experiments:
TK-10 = experiment: Growth inhibition of human TK10 cells assessed as cell growth at 10 uM after 48 hrs by sulforhodamine B assay; type: functional; conditions: TK-10, 48 h, read-out: Activity
HCT-116 = experiment: Growth inhibition of human HCT116 cells after 48 hrs by sulforhodamine B assay; type: functional; conditions: HCT-116, 48 h
SN12C = experiment: Growth inhibition of human SN12C cells after 48 hrs by sulforhodamine B assay; type: functional
SK-MEL-28 = experiment: Growth inhibition of human SK-MEL-28 cells assessed as cell growth at 10 uM after 48 hrs by sulforhodamine B assay; type: functional; conditions: SK-MEL-28, 48 h, read-out: Activity
MDA-MB-435 = experiment: Growth inhibition of human MDA-MB-435 cells after 48 hrs by sulforhodamine B assay; type: functional, cell-based; conditions: MDA-MB-435, 48 h
HCT-15 [1] = experiment: Growth inhibition of human HCT15 cells assessed as cell growth at 10 uM after 48 hrs by sulforhodamine B assay; type: functional; conditions: HCT-15, 48 h, read-out: Activity
HT-29 [2] = experiment: Growth inhibition of human HT-29 cells after 48 hrs by sulforhodamine B assay; type: functional; conditions: HT-29, 48 h
SNB-19 [3] = experiment: Growth inhibition of human SNB19 cells assessed as cell growth at 10 uM after 48 hrs by sulforhodamine B assay; type: functional; conditions: SNB-19, 48 h, read-out: Activity
RXF 393 = experiment: Growth inhibition of human RXF393 cells after 48 hrs by sulforhodamine B assay; type: functional; conditions: RXF 393, 48 h
786-0 = experiment: Growth inhibition of human 786-0 cells assessed as cell growth at 10 uM after 48 hrs by sulforhodamine B assay; type: functional; conditions: 786-0, 48 h, read-out: Activity
SNB-75 = experiment: Growth inhibition of human SNB75 cells after 48 hrs by sulforhodamine B assay; type: functional; conditions: SNB-75, 48 h
SW-620 = experiment: Growth inhibition of human SW620 cells assessed as cell growth at 10 uM after 48 hrs by sulforhodamine B assay; type: functional; conditions: SW-620, 48 h, read-out: Activity
[4] = Growth inhibition of human NCI-ADR-RES cells after 48 hrs by sulforhodamine B assay; type: functional
M14 [5] = experiment: Growth inhibition of human M14 cells after 48 hrs by sulforhodamine B assay; type: functional; conditions: M14, 48 h
NCI-H322M = experiment: Growth inhibition of human NCI-H322M cells after 48 hrs by sulforhodamine B assay; type: functional
OVCAR-3 = experiment: Growth inhibition of human OVCAR3 cells assessed as cell growth at 10 uM after 48 hrs by sulforhodamine B assay; type: functional; conditions: OVCAR-3, 48 h, read-out: Activity
U-251 = experiment: Growth inhibition of human U251 cells after 48 hrs by sulforhodamine B assay; type: functional; conditions: U-251, 48 h
[6] = Growth inhibition of human Hs 578T cells after 48 hrs by sulforhodamine B assay; type: functional
ACHN = experiment: Growth inhibition of human ACHN cells assessed as cell growth at 10 uM after 48 hrs by sulforhodamine B assay; type: functional; conditions: read-out: Activity
[7] = Growth inhibition of human Hs 578T cells assessed as cell growth at 10 uM after 48 hrs by sulforhodamine B assay; type: functional; conditions: read-out: Activity
A498 = experiment: Growth inhibition of human A498 cells after 48 hrs by sulforhodamine B assay; type: functional, cell-based; conditions: A498, 48 h
[8] = Growth inhibition of human HCC2998 cells assessed as cell growth at 10 uM after 48 hrs by sulforhodamine B assay; type: functional; conditions: HCC 2998, 48 h, read-out: Activity
DU-145 [9] = experiment: Growth inhibition of human DU145 cells assessed as cell growth at 10 uM after 48 hrs by sulforhodamine B assay; type: functional; conditions: DU-145, 48 h, read-out: Activity
SNB-19 [10] = experiment: Growth inhibition of human SNB19 cells after 48 hrs by sulforhodamine B assay; type: functional; conditions: SNB-19, 48 h
PC-3 = experiment: Growth inhibition of human PC3 cells after 48 hrs by sulforhodamine B assay; type: functional, cell-based; conditions: PC-3, 48 h
DU-145 [11] = experiment: Growth inhibition of human DU145 cells after 48 hrs by sulforhodamine B assay; type: functional; conditions: DU-145, 48 h
A549 [12] = experiment: Growth inhibition of human A549/ATCC cells after 48 hrs by sulforhodamine B assay; type: functional; conditions: A549, 48 h
SK-MEL-2 = experiment: Growth inhibition of human SK-MEL-2 cells assessed as cell growth at 10 uM after 48 hrs by sulforhodamine B assay; type: functional; conditions: SK-MEL-2, 48 h, read-out: Activity
HT-29 [13] = experiment: Growth inhibition of human HT-29 cells assessed as cell growth at 10 uM after 48 hrs by sulforhodamine B assay; type: functional; conditions: HT-29, 48 h, read-out: Activity
M14 [14] = experiment: Growth inhibition of human M14 cells assessed as cell growth at 10 uM after 48 hrs by sulforhodamine B assay; type: functional; conditions: M14, 48 h, read-out: Activity
HCT-15 [15] = experiment: Growth inhibition of human HCT15 cells after 48 hrs by sulforhodamine B assay; type: functional; conditions: HCT-15, 48 h
KM12 = experiment: Growth inhibition of human KM12 cells assessed as cell growth at 10 uM after 48 hrs by sulforhodamine B assay; type: functional; conditions: KM12, 48 h, read-out: Activity
A549 [16] = experiment: Growth inhibition of human A549/ATCC cells assessed as cell growth at 10 uM after 48 hrs by sulforhodamine B assay; type: functional; conditions: A549, 48 h, read-out: Activity
OVCAR-4 = experiment: Growth inhibition of human OVCAR4 cells assessed as cell growth at 10 uM after 48 hrs by sulforhodamine B assay; type: functional; conditions: OVCAR-4, 48 h, read-out: Activity
UACC-257 = experiment: Growth inhibition of human UACC257 cells after 48 hrs by sulforhodamine B assay; type: functional; conditions: UACC-257, 48 h
[17] = read-out: LC50 (the source's name)

COc1cc(-c2nn(-c3cccc(NC(=O)Nc4ccc(Cl)c(C(F)(F)F)c4)c3)cc2-c2ccncc2)ccc1Cl
growth at 10 µM (TK-10): 12.6% | GI50 (HCT-116): 1.17 µM | TGI (HCT-116): 4.56 µM | CC50 (HCT-116; [17]): 21.5 µM | GI50 (SN12C): 1.14 µM | TGI (SN12C): 9.23 µM | CC50 (SN12C; [17]): > 32.5 µM | growth at 10 µM (SK-MEL-28): 8.8% | GI50 (MDA-MB-435): 0.683 µM | IC50 (MDA-MB-435): 0.68 µM | TGI (MDA-MB-435): 1.69 µM | CC50 (MDA-MB-435; [17]): > 32.5 µM | growth at 10 µM (HCT-15 [1]): 9.91% | GI50 (HT-29 [2]): 1.19 µM | TGI (HT-29 [2]): 4.45 µM | CC50 (HT-29 [2]; [17]): 21.5 µM | growth at 10 µM (SNB-19 [3]): 26.4% | GI50 (RXF 393): 1.18 µM | LC50 (concentration killing 50% of cells) (RXF 393): > 32.5 µM | TGI (RXF 393): 6.29 µM | growth at 10 µM (786-0): 15.1% | GI50 (SNB-75): 1.28 µM | LC50 (lethal concentration, 50% net cell kill) (SNB-75): > 32.5 µM | TGI (SNB-75): 10.3 µM | growth at 10 µM (SW-620): 15.4% | GI50 [4]: 1.04 µM | TGI [4]: 7.99 µM | CC50 [4, 17]: > 32.5 µM | GI50 (M14 [5]): 1.08 µM | LC50 (concentration killing 50% of cells) (M14 [5]): 19.1 µM | TGI (M14 [5]): 3.71 µM | GI50 (NCI-H322M): 1.5 µM | TGI (NCI-H322M): 13.9 µM | CC50 (NCI-H322M; [17]): > 32.5 µM | growth at 10 µM (OVCAR-3): -12.4% | GI50 (U-251): 0.985 µM | LC50 (concentration killing 50% of cells) (U-251): 24.7 µM | TGI (U-251): 4.18 µM | GI50 [6]: 1.32 µM | TGI [6]: 18.3 µM | CC50 [6, 17]: > 32.5 µM | growth at 10 µM (ACHN): 9.33% | growth at 10 µM [7]: 2.21% | GI50 (A498): 0.837 µM | IC50 (A498): 0.84 µM | TGI (A498): 6.97 µM | CC50 (A498; [17]): > 32.5 µM | growth at 10 µM [8]: 8.88% | growth at 10 µM (DU-145 [9]): 20.3% | GI50 (SNB-19 [10]): 1.24 µM | LC50 (concentration killing 50% of cells) (SNB-19 [10]): > 32.5 µM | TGI (SNB-19 [10]): 9.24 µM | GI50 (PC-3): 0.69 µM | IC50 (PC-3): 0.69 µM | TGI (PC-3): 2.45 µM | CC50 (PC-3; [17]): > 32.5 µM | GI50 (DU-145 [11]): 1.5 µM | LC50 (DU-145 [11]): > 32.5 µM | TGI (DU-145 [11]): > 32.5 µM | GI50 (A549 [12]): 1.02 µM | LC50 (concentration killing 50% of starting cells) (A549 [12]): > 32.5 µM | TGI (A549 [12]): 16.7 µM | growth at 10 µM (SK-MEL-2): -57.8% | growth at 10 µM (HT-29 [13]): -0.5% | growth at 10 µM (M14 [14]): -11.7% | GI50 (HCT-15 [15]): 1.23 µM | LC50 (HCT-15 [15]): > 32.5 µM | TGI (HCT-15 [15]): 7.05 µM | growth at 10 µM (KM12): 2.88% | growth at 10 µM (A549 [16]): -10.4% | growth at 10 µM (OVCAR-4): 20.8% | GI50 (UACC-257): 1.21 µM | TGI (UACC-257): 6.03 µM | CC50 (UACC-257; [17]): 29.2 µM
